# Measurements reported in patent US20160205982A1, “LIFE ENHANCING BEVERAGES” (REOXCYN DISCOVERIES GROUP, INC., priority 2013, published 2016).
# Legend:
# NRF2 = test: Western blot of NRF2 in nuclear extracts of HMVEC-L; format: cell-based, human; settings: H2O2 30 min, positive control
# Description: (§1) 8. A Western Blot analysis was done on extra-nuclear and intra-nuclear fractions, separated by differential centrifugation, of serum starved HMVEC-L cell cultures exposed to <1% ASEA compared with a positive hydrogen peroxide control to determine phosphorylation events (oxidant action) in the extra-nuclear fraction and NRF2 (antioxidant transcription) in the intra-nuclear fraction at 0, 30, 60, 90 and 120 min. intervals.
# (§2) Experimental Methods for Western Blot Validation of NRF2 Nuclear Accumulation: HMVEC-L were treated with 1% ASEA, nuclear extracts were separated through centrifugal differentiation from the extra-nuclear cytosol at 30, 60 and 120 min and subjected to Western Blot analysis for NRF2. In the Western blot experiment the extra-nuclear fraction was probed for phosphorylated proteins using a combination of anti-phospho serine, threonine and tyrosine antibodies. Virtually all cellular processes are regulated by posttranslational modifications and protein phosphorylation is a prevalent mechanism. Observable changes in protein phosphorylation can lead to a mechanistic understanding of the cellular processes perturbed by ASEA and provide a defined endpoint to better define dose-dependent regulation of cell function by ASEA in vitro, as well as provide a potential candidate molecular marker that may be used to provide in vitro-in vivo correlates. […]
# [1] = tested on: phosphorylated proteins (extra-nuclear fraction); test: Western blot of protein phosphorylation in extra-nuclear fraction of HMVEC-L; format: cell-based, human; settings: H2O2 treatment
# Description: as §1, §2
compound,measurement,setting,value
"OO [H2O2, Hydrogen peroxide]",NRF2 levels in nuclear extracts,NRF2,did not increase
same,phosphorylation of the protein detected in extra-nuclear fraction,[1],marked increase
